Experimental data taken from patent US20170008888A1 (KYORIN PHARMACEUTICAL CO., LTD., priority 2014, published 2017).

Key:
AurB or AurC = test: Probe-based (AX9989) kinase profiling in Jurkat lysate: AurB or AurC; type: binding
Summary of the method: (§1)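 Jurkat lysate, HEPES pH 7.5 buffer + 20 mM MnCl2; cpd 15 min RT; AX9989 ATP probe 5 μM final, RT. Trypsin digest, streptavidin capture, LC/MS; % inhibition vs vehicle from labeled-peptide signal.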

ABL or ARG = test: Probe-based (AX9989) kinase profiling in Jurkat lysate: ABL or ARG; type: binding
Summary of the method: as §1

JAK1 = target: T1, JAK1 (Homo sapiens, UniProt P23458); test: Probe-based (AX9989) kinase profiling in Jurkat lysate: JAK1; type: binding; conditions: read-out: Kinase inhibition % at indicated screening concentration: JAK1; for inhibition at 0.1 µM: screening concentration 0.1 μM; for inhibition at 1 µM: screening concentration 1.0 μM
T1 construct: screened for activity against several kinases in Jurkat cells; endogenous in cells; host or cells: Jurkat cell lysate
T1 sequence (P23458 whole entry): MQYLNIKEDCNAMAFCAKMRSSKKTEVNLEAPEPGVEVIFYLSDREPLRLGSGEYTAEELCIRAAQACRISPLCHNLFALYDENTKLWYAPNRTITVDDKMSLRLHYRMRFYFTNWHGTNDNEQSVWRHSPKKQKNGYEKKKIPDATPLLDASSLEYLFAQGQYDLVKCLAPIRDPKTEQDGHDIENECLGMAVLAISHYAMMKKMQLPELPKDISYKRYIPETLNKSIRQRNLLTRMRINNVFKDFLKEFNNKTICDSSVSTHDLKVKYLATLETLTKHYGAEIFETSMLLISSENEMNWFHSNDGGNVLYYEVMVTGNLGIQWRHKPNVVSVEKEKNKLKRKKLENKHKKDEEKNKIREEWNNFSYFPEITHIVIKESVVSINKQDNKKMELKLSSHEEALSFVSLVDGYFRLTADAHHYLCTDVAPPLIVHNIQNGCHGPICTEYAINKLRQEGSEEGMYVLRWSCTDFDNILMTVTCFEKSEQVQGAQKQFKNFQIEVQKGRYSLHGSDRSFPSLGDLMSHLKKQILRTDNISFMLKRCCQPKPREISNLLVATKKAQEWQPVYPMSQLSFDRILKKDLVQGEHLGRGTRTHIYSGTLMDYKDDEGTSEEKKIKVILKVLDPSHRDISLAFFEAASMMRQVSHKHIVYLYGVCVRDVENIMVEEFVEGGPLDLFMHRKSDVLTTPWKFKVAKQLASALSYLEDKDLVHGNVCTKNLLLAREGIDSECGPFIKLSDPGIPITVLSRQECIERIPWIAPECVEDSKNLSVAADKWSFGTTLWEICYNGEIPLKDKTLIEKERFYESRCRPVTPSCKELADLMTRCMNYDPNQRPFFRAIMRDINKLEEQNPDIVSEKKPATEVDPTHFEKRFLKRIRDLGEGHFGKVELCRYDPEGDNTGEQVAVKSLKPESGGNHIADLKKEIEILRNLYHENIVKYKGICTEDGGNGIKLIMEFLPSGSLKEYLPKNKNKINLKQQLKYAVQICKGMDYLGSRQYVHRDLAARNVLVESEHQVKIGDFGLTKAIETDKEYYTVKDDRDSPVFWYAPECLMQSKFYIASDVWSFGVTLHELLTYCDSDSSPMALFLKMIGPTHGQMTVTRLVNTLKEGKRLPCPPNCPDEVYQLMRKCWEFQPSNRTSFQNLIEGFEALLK
Summary of the method: as §1

AMPKa1 or AMPKa2 = test: Probe-based (AX9989) kinase profiling in Jurkat lysate: AMPKa1 or AMPKa2; type: binding
Summary of the method: as §1

human PBMCs = test: Human PBMC TNF-α response to endotoxin (ELISA); type: cell-based; conditions: 0.1 μg/ml LPS 16 h, read-out: EC50 for the inhibition of the human PBMC TNF-α response to endotoxin, ave. ± S.D.
Summary of the method: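 PBMCs at 2e6 cells/ml in RPMI 1640 with 10% charcoal-dextran-treated FBS were pre-treated 1 h at 37 °C with compound (4-point 1:5 dilution from 10 μM). Stimulation with 0.1 μg/ml E. coli 0111:B4 LPS for 16 h; TNF-α measured by ELISA (A450) in 25-fold diluted supernatant.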

AurA = target: T2, AurA (Homo sapiens, UniProt O14965); test: Probe-based (AX9989) kinase profiling in Jurkat lysate: AurA; type: binding; conditions: read-out: Kinase inhibition % at indicated screening concentration: AurA; for inhibition at 0.1 µM: screening concentration 0.1 μM; for inhibition at 1 µM: screening concentration 1.0 μM
T2 construct: screened for activity against several kinases in Jurkat cells; endogenous in cells; host or cells: Jurkat cell lysate
T2 sequence (O14965 1-403): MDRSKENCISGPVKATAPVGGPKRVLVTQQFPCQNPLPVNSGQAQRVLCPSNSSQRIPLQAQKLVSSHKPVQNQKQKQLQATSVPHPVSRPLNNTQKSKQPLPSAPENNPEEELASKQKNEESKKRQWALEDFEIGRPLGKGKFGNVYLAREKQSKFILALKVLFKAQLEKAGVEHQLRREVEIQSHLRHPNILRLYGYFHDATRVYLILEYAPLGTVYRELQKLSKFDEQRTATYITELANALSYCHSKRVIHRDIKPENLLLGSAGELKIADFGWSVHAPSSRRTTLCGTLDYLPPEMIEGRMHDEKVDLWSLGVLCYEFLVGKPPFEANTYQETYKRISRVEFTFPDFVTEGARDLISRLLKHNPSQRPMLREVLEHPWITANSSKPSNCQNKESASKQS
Summary of the method: as §1

ERK5 = target: T3, ERK5 (Homo sapiens, UniProt Q13164); test: Probe-based (AX9989 acyl phosphate ATP probe) kinase profiling in Jurkat lysate: ERK5; type: binding; conditions: for IC50: calculated from percent inhibition of AX9989 labeling and the screening concentration, Jurkat lysate; for inhibition at 0.1 µM: screening concentration 0.1 μM; for inhibition at 0.1 µM / inhibition at 1 µM: read-out: Kinase inhibition % at indicated screening concentration: ERK5; for inhibition at 1 µM: screening concentration 1.0 μM
T3 construct: screened for activity against several kinases in Jurkat cells; endogenous in cells; host or cells: Jurkat cell lysate
T3 sequence (Q13164 whole entry): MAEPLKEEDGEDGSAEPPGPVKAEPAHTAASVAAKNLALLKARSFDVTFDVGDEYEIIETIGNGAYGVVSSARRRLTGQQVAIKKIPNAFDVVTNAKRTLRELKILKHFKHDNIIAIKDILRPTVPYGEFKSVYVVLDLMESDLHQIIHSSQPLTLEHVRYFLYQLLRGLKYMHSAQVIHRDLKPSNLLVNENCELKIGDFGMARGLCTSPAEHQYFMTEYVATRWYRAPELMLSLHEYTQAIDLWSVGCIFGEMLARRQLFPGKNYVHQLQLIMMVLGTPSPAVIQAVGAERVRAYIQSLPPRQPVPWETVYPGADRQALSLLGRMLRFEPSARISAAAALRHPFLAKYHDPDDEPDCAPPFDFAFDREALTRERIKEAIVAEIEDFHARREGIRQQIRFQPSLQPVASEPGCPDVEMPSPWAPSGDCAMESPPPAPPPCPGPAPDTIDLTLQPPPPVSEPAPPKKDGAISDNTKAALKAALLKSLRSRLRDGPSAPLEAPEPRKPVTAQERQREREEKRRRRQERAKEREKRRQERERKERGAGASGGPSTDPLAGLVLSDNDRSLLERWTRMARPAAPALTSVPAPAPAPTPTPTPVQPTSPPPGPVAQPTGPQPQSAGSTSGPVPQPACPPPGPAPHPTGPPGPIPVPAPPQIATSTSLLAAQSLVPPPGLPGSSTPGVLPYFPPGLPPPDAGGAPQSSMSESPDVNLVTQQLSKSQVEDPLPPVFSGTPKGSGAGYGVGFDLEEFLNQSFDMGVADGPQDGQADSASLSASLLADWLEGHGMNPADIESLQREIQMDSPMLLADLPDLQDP
Summary of the method: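 Gel-filtered Jurkat lysate (5 mg/ml, 20 mM MnCl2) preincubated 15 min at room temperature with compound, then labelled with 5 μM AX9989 acyl phosphate ATP probe. Probe-labelled ERK5 active-site peptides quantified by LC/MS after trypsin digestion and streptavidin capture; IC50 calculated from percent inhibition at the screening concentration.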

ACK = target: T4, ACK (Homo sapiens, UniProt Q07912); test: Probe-based (AX9989) kinase profiling in Jurkat lysate: ACK; type: binding; conditions: read-out: Kinase inhibition % at indicated screening concentration: ACK; for inhibition at 0.1 µM: screening concentration 0.1 μM; for inhibition at 1 µM: screening concentration 1.0 μM
T4 construct: screened for activity against several kinases in Jurkat cells; endogenous in cells; host or cells: Jurkat cell lysate
T4 sequence (Q07912 whole entry): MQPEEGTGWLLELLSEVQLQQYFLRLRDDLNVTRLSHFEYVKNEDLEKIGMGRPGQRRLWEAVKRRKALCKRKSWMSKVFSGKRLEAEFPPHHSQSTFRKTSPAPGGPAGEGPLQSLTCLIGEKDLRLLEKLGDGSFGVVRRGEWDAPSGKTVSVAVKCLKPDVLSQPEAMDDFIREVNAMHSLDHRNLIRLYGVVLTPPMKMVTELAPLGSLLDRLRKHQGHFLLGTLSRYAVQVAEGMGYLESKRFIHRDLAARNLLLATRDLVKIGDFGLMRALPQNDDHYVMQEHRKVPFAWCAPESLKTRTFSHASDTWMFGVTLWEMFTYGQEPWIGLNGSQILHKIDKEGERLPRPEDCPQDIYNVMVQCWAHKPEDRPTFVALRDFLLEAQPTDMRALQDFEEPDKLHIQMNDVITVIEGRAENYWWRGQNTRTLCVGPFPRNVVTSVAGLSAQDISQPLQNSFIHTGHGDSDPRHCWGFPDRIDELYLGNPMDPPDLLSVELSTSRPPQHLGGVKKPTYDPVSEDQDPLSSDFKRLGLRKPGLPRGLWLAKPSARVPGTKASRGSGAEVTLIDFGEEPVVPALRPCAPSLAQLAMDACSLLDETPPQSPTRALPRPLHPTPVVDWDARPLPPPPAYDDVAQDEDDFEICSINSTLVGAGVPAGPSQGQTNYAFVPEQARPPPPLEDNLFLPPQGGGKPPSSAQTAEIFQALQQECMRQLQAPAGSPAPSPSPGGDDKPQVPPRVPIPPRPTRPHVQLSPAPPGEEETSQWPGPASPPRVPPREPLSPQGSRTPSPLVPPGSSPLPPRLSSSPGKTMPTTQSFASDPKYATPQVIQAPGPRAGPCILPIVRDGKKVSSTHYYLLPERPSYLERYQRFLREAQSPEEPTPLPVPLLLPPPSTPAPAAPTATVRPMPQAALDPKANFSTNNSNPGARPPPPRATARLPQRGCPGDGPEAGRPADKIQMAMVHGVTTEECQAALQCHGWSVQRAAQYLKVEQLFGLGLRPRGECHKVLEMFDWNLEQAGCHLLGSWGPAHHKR
Summary of the method: as §1

TAO2 = target: T5, TAO2 (Homo sapiens, UniProt Q9UL54); test: Probe-based (AX9989) kinase profiling in Jurkat lysate: TAO2; type: binding; conditions: read-out: Kinase inhibition % at indicated screening concentration: TAO2; for inhibition at 0.1 µM: screening concentration 0.1 μM; for inhibition at 1 µM: screening concentration 1.0 μM
T5 construct: screened for activity against several kinases in Jurkat cells; endogenous in cells; host or cells: Jurkat cell lysate
T5 sequence (Q9UL54 1-1235): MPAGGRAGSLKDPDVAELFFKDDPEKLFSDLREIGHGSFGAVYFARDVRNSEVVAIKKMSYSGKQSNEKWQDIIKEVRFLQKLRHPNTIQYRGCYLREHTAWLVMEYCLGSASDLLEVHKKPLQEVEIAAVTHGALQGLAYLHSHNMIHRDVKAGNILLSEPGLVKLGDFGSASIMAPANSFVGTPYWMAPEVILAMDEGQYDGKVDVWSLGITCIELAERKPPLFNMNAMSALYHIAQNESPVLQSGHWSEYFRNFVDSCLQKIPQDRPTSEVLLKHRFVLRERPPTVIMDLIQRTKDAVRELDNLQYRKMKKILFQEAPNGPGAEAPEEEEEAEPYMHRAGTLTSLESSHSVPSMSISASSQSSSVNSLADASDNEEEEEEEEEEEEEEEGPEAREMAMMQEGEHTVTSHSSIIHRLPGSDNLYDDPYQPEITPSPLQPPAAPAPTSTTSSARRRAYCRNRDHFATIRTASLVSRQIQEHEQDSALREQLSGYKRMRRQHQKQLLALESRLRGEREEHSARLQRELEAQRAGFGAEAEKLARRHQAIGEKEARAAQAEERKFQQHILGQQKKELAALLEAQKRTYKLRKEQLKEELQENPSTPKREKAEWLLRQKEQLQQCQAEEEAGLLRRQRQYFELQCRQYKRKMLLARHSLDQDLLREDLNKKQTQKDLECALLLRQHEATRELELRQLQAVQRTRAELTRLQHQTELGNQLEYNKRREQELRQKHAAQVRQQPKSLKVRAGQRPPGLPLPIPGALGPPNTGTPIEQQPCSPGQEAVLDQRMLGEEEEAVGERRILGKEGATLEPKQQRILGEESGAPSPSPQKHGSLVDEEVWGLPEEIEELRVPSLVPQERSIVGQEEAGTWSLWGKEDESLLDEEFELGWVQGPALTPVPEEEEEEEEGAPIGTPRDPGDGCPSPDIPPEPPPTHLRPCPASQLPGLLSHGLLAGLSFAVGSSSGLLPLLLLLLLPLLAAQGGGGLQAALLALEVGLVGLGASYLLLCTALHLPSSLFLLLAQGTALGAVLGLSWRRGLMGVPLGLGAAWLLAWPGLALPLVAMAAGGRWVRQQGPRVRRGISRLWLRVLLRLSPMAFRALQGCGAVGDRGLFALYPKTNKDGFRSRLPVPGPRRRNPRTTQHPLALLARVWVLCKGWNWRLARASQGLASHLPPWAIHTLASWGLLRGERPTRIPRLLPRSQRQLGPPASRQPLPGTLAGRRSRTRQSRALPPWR
Summary of the method: as §1

SMILES | Kinase inhibition % at indicated screening concentration: AurB or AurC (AurB or AurC; screening concentration 0.1 μM) | Kinase inhibition % at indicated screening concentration: ABL or ARG (ABL or ARG; screening concentration 0.1 μM) | inhibition at 0.1 µM (JAK1) [%] | Kinase inhibition % at indicated screening concentration: AMPKa1 or AMPKa2 (AMPKa1 or AMPKa2; screening concentration 0.1 μM) | EC50 (human PBMCs) [µM] | inhibition at 0.1 µM (AurA) [%] | IC50 (ERK5) [µM] | inhibition at 0.1 µM (ERK5) [%] | inhibition at 0.1 µM (ACK) [%] | inhibition at 0.1 µM (TAO2) [%] | Kinase inhibition % at indicated screening concentration: AurB or AurC (AurB or AurC; screening concentration 1.0 μM) | Kinase inhibition % at indicated screening concentration: ABL or ARG (ABL or ARG; screening concentration 1.0 μM) | inhibition at 1 µM (JAK1) [%] | Kinase inhibition % at indicated screening concentration: AMPKa1 or AMPKa2 (AMPKa1 or AMPKa2; screening concentration 1.0 μM) | inhibition at 1 µM (AurA) [%] | inhibition at 1 µM (ERK5) [%] | inhibition at 1 µM (ACK) [%] | inhibition at 1 µM (TAO2) [%]
CCOc1cc(C(=O)N2CCC(N)C2)ccc1Nc1cc2c(cn1)N(C)C(=O)c1occc1N2C (centres unmarked) [Compound 11] | E (E is ≦35%) | E (E is ≦35%) | ≤ 35 | E (E is ≦35%) | 2.52 | ≤ 35 | ≤ 0.05 | > 90 | ≤ 35 | ≤ 35 | – | – | – | – | – | – | – | –
COc1cccnc1Nc1cc2c(cn1)N(C)C(=O)c1ccccc1N2C [Compound 14] | – | – | – | – | 2.85 | – | > 0.5 | – | – | – | E (E is ≦35%) | E (E is ≦35%) | ≤ 35 | E (E is ≦35%) | ≤ 35 | > 90 | ≤ 35 | ≤ 35
CCN(CC)CCNC(=O)c1ccc(OC)c(Nc2cc3c(cn2)N(C)C(=O)c2ccccc2N3C)c1 [Compound 16] | – | – | – | – | 1.87 | – | 0.101 to 0.5 | – | – | – | E (E is ≦35%) | E (E is ≦35%) | ≤ 35 | E (E is ≦35%) | ≤ 35 | 75 to 90 | ≤ 35 | ≤ 35
Cc1cc(C(=O)N2CC[C@@H](N(C)C)C2)ccc1Nc1cc2c(cn1)N(C)C(=O)c1ccccc1N2C [Compound 32] | E (E is ≦35%) | E (E is ≦35%) | ≤ 35 | E (E is ≦35%) | 6.36 | ≤ 35 | ≤ 0.05 | 75 to 90 | ≤ 35 | ≤ 35 | – | – | – | – | – | – | – | –
CCOc1cc(C(=O)N2CCC(c3c[nH]cn3)CC2)ccc1Nc1cc2c(cn1)N(C)C(=O)c1ccccc1N2C [Compound 35] | E (E is ≦35%) | E (E is ≦35%) | ≤ 35 | E (E is ≦35%) | 6 | ≤ 35 | 0.101 to 0.5 | 35 to 50 | ≤ 35 | ≤ 35 | – | – | – | – | – | – | – | –
COc1ccc(Nc2cc3c(cn2)N(C)C(=O)c2ccccc2N3C)c(C)c1 [Compound 41] | – | – | – | – | 7.61 | – | 0.101 to 0.5 | – | – | – | E (E is ≦35%) | E (E is ≦35%) | ≤ 35 | E (E is ≦35%) | ≤ 35 | 75 to 90 | ≤ 35 | ≤ 35
CCOc1cc(C(=O)N2CCN(C(=O)OC(C)(C)C)C[C@@H]2C)ccc1Nc1cc2c(cn1)N(C)C(=O)c1ccccc1N2C [Compound 50] | E (E is ≦35%) | E (E is ≦35%) | ≤ 35 | E (E is ≦35%) | 2.58 | ≤ 35 | 0.101 to 0.5 | 35 to 50 | ≤ 35 | ≤ 35 | – | – | – | – | – | – | – | –
Cc1c(Nc2cc3c(cn2)N(C)C(=O)c2ccccc2N3C)cnn1C [Compound 59] | – | – | – | – | 5.84 | – | 0.101 to 0.5 | – | – | – | E (E is ≦35%) | E (E is ≦35%) | ≤ 35 | E (E is ≦35%) | ≤ 35 | 75 to 90 | ≤ 35 | ≤ 35
